Experimental data: ChEMBL document CHEMBL4052825, “Identification of Novel Coumestan Derivatives as Polyketide Synthase 13 Inhibitors against Mycobacterium tuberculosis” (J Med Chem, 2018)
Values after ≈ are worked out from the molar mass of the structure shown.

What was measured:
[1] = Selectivity ratio of MIC=<90 for resistant Mycobacterium tuberculosis harboring PKS13 mutant to MIC=<90 for Mycobacterium tuberculosis H37Rv
[2] = tested on: Mycobacterium tuberculosis; test: Antitubercular activity against resistant Mycobacterium tuberculosis harboring PKS13 mutant after 12 to 24 hrs by MABA; format: functional
[3] = tested on: Mycobacterium tuberculosis; test: Antitubercular activity against isoniazid/rifampicin/fluoroquinolone-resistant Mycobacterium tuberculosis; format: functional

| Structure (SMILES) | Selectivity ratio [1] | MIC=<90 [2] | MIC [3] |
| --- | --- | --- | --- |
| COc1ccc2c(c1)oc(=O)c1c2oc2ccc(O)c(CN3CCCCC3)c21 | 64 | 16 µg/mL (≈ 42.2 µM) |  |
| CCOC(=O)c1c(-c2ccc(F)cc2)oc2ccc(O)c(CN3CCCCC3)c12 | 8 | 4 µg/mL (≈ 10.1 µM) |  |
| O=c1oc2ccccc2c2oc3ccc(O)c(CN4CCCCC4)c3c12 | 64 to 128 | 16 µg/mL (≈ 45.8 µM) |  |
| CCOC(=O)c1c(NC(=O)c2c(F)c(F)c(F)c(F)c2F)sc2c1CCN(CC)C2 |  |  | 0.2 to 0.4 µM (≈ 0.0897 to 0.179 µg/mL) |
